Assay results: article PMC12595617, “Investigating the potential role of metabolic resistance genes in conferring cross-resistance to pyrethroids and polycyclic aromatic hydrocarbon pollutants in the major malaria vector Anopheles coluzzii” (BMC Genomics, 2025)
“And” between values parts separate entries of the source, which are not always exact repeats. Equal entries are not always repeated. Where two headings read alike, the source gives them in different places. Blank lines part the entries; values can stand above or below the compound they belong to.

Assays:
Auyo microsomes [1] = assay: Microsomal P450 activity with model probe substrate DEF, Auyo; assay type: biochemical, Anopheles coluzzii; conditions: 10 µM DEF, 0.05 µM P450, read for 15 min
Method: (§1) P450 activity was determined in the prepared microsomes from both Auyo and Ngousso strains using diethoxyfluorescein (DEF) as the model fluorogenic substrate using the methods earlier described. Briefly, the enzyme-buffer mix consisted of 0.05 µM of cytochrome P450 (microsomes), 50 mM potassium phosphate buffer, pH 7.4, 0.5 µM cytochrome b5 and 10 µM DEF. To initiate the reactions in a 96-well plates (Thermo Labsystems, Basingstoke, UK), a NADPH ([…]) regeneration mix (consisting of 1mM glucose-6-phosphate, 0.1 M NADP+, 0.25mM magnesium chloride, IU/ml glucose-6-phosphate dehydrogenase and 50 mM potassium phosphate buffer pH 7.4) was added in the positive replicates whereas the same buffer with no NADPH was added in the negative wells. Using the excitation (482 nm) and emission (520 nm) wavelengths of DEF, the […] was read for 15 min, and the relative fluorescence unit per min per picomole of the P450 (RFU/min/pmol of P450) was determined.

Ngousso microsomes = assay: Microsomal P450 activity with model probe substrate DEF, Ngousso; assay type: biochemical, Anopheles coluzzii; conditions: 10 µM DEF, 0.05 µM P450, read for 15 min
Method: as §1

[2] = test system: microsomes prepared from pyrethroid-resistant Anopheles coluzzii (Auyo); conditions: Auyo (field-resistant) larval microsomes, 0.05 µM P450, 20 µM PAH, 2 h, 30 °C, +NADPH vs -NADPH, mean ± SD of three replicates
Method: To compare the metabolic activity of the microsomes and the recombinant cytochrome P450s towards PAH metabolism assays were conducted side by side as described earlier. The NADPH regeneration mixture (consisting of 0.1 M NADP+, 50mM potassium phosphate buffer, pH 7.4, 1 mM glucose-6-phosphate, 0.25 mM magnesium chloride and 1U/ml glucose-6-phosphate dehydrogenase) was used in the positive replicates. For the negatives, the same buffer with no added NADP + was used. Enzyme-buffer mix comprised of 0.05 µM recombinant P450 or microsome, 0.4 µM cytochrome b5, 50 mM potassium phosphate buffer pH 7.4 and 20 µM of the PAH substrates. To initiate the reactions, regeneration mixture was added to the enzyme-buffer mix in a 1:1 ratio (total of 200 µl) following activation for 5 min at 30 °C and 1200 rpm shaking. The reaction was run for 2 h at 30 °C with 200 rpm shaking. To stop the reaction, 200 µl of ice-cold High Performance Liquid Chromatography (HPLC) grade acetonitrile was added, followed by additional shaking for 5 min to precipitate the proteins. The mixture was kept on ice for 10 min before centrifuging at 16,000xg for 20 min. […]
(§2) Using the Agilent HPLC 1200 infinity series, analysis of the PAHs metabolism was conducted. The HPLC conditions consisted of mobile phases of HPLC grade acetonitrile and water in the ratio of 80/20 and detected at a wavelength of 254 nm.

recombinant CYP6P3 = conditions: recombinant CYP6P3, 0.05 µM P450, 20 µM PAH, 2 h, 30 °C, +NADPH vs -NADPH
Method: (§3) The recombinant P450s used in this study were acquired from the enzyme characterization group (ECG) leader, Dr. Mark J.I. Paine of the Vector Biology Department, Liverpool School of Tropical Medicine. All the P450s were expressed from field-resistant populations of An. gambiae except for CYP6P9a, which was expressed from An. funestus. The heterologous expression of the P450s was conducted according to the previously described approaches. Briefly, P450s were expressed by using ompA and pelB signal sequences to direct P450 and An. gambiae CPR (AgCPR), respectively, to the inner membrane of E. coli a functional monooxygenase. The P450 sequences were amplified from cDNA and fused to the ompA signal peptides in simple PCR reactions. This is followed by ligation of the digested fragments into linearized expression vector pCWori+, thereby creating a construct pB13:ompA + 2-P450. Competent JM109 cells were co-transformed with plasmids pB13:ompA + 2-P450 and pACYC-AgCPR for the expression of functional P450 and An. gambiae CPR, respectively. Colonies carrying the two plasmids as confirmed by the colony PCR are used for a 12–14 h starter culture overnight. Typically, 0.2 L cultures were supplemented with 2 mL from the starter cultures and incubated at 37 °C and 200 rpm shaking while the absorbance at 600 nm was being monitored. When the OD reached 0.6–0.8, the cultures were cooled down to 25 °C for 30 min with shaking at 150 rpm. Induction with 1 mM isopropyl β-D-1-thiogalactopyranoside (IPTG) and 0.5 mM 5-aminolaevulinic acid (ALA) was conducted. Determinations of the P450 content and CPR activity were conducted using the procedure of [61] and [60], respectively.
(§4) To compare the metabolic activity of the microsomes and the recombinant cytochrome P450s towards PAH metabolism assays were conducted side by side as described earlier. The NADPH regeneration mixture (consisting of 0.1 M NADP+, 50mM potassium phosphate buffer, pH 7.4, 1 mM glucose-6-phosphate, 0.25 mM magnesium chloride and 1U/ml glucose-6-phosphate dehydrogenase) was used in the positive replicates. For the negatives, the same buffer with no added NADP + was used. Enzyme-buffer mix comprised of 0.05 µM recombinant P450 or microsome, 0.4 µM cytochrome b5, 50 mM potassium phosphate buffer pH 7.4 and 20 µM of the PAH substrates. To initiate the reactions, regeneration mixture was added to the enzyme-buffer mix in a 1:1 ratio (total of 200 µl) following activation for 5 min at 30 °C and 1200 rpm shaking. The reaction was run for 2 h at 30 °C with 200 rpm shaking. To stop the reaction, 200 µl of ice-cold High Performance Liquid Chromatography (HPLC) grade acetonitrile was added, followed by additional shaking for 5 min to precipitate the proteins. The mixture was kept on ice for 10 min before centrifuging at 16,000xg for 20 min. The supernatants were filtered through 0.45 μm PTFE filters (ThermoFisher Scientific, MA, USA) and filtrate transferred to HPLC vials for onward analysis.
as §2

recombinant CYP6Z2 = test system: recombinant CYP6Z2
Method: as §3, §4, §2

recombinant CYP6Z3 = test system: recombinant CYP6Z3
Method: as §3, §4, §2

Auyo microsomes [3] = assay: Fluorene turnover assay using microsomes; assay type: in vitro ADME, Anopheles coluzzii; conditions: fluorene 30 µM, run time 15-150 min
Method: Because of the higher percentage of depletion observed in the Auyo microsomal metabolism of fluorene, it was chosen to be analysed further for its turnover and kinetic studies. To understand the turnover rates of the fluorene depletions, reaction run time was varied between 15 and 150 min. Specific points used were 15, 30, 45, 60, 90, 120 and 150 min while the fluorene concentration was maintained at 30 µM in all these time points.

Auyo microsomal P450 = assay: in vitro; assay type: in vitro ADME, Anopheles coluzzii
Method: For the determination of steady-state kinetic parameters, assays were conducted for 30 min with 0.05 µM microsomal P450 while varying the concentrations of fluorene (0–600 µM). Kinetics plot of velocity against the substrate concentrations was made using the least squares non-linear regression in GraphPad Prism 6.03 Software (GraphPad Inc., La Jolla, CA, USA) that fits into the canonical Michaelis-Menten model as previously described for pyrethroid insecticides.

CYP9K1 = assay type: in vitro ADME, An. gambiae; conditions: Anopheles gambiae, 2 h, 20 µM, pH 7.4
Method: (§5) To compare the metabolic activity of the microsomes and the recombinant cytochrome P450s towards PAH metabolism assays were conducted side by side as described earlier [38, 43]. The NADPH regeneration mixture (consisting of 0.1 M NADP+, 50mM potassium phosphate buffer, pH 7.4, 1 mM glucose-6-phosphate, 0.25 mM magnesium chloride and 1U/ml glucose-6-phosphate dehydrogenase) was used in the positive replicates. For the negatives, the same buffer with no added NADP + was used. Enzyme-buffer mix comprised of 0.05 µM recombinant P450 or microsome, 0.4 µM cytochrome b5, 50 mM potassium phosphate buffer pH 7.4 and 20 µM of the PAH substrates. To initiate the reactions, regeneration mixture was added to the enzyme-buffer mix in a 1:1 ratio (total of 200 µl) following activation for 5 min at 30 °C and 1200 rpm shaking. The reaction was run for 2 h at 30 °C with 200 rpm shaking. […]
(§6) Using the Agilent HPLC 1200 infinity series, analysis of the PAHs metabolism was conducted. The HPLC conditions consisted of mobile phases of HPLC grade acetonitrile and water in the ratio of 80/20 and detected at a wavelength of 254 nm. […] Percentage depletions for each compound were calculated in both the microsomal and recombinant P450 studies. […]

CYP6P4 = assay type: in vitro ADME, An. gambiae; conditions: Anopheles gambiae, 2 h, 20 µM, pH 7.4
Method: as §5, §6

CYP9J5 = assay type: in vitro ADME, An. gambiae; conditions: Anopheles gambiae, 2 h, 20 µM, pH 7.4
Method: as §5, §6

[4] = test system: all the recombinant P450s used in this study (CYPs 6M2, 6Z2, 6Z3, 9J5, 6P3, 6P4, 6P5, CYP9K1, CYP6P9a); assay: In vitro metabolism of PAHs with the whole recombinant P450 panel; assay type: in vitro ADME, An. gambiae / An. funestus; conditions: Anopheles gambiae; Anopheles funestus (CYP6P9a), 2 h, 20 µM, pH 7.4
Method: as §5, §6

SMILES: CCOc1ccc2c(c1)Oc1cc(OCC)ccc1C21OC(=O)c2ccccc21 [DEF, diethoxyfluorescein]
- DEF activity (Auyo microsomes [1]): 4.9 RFU/min/pmole P450
- DEF activity (Ngousso microsomes): 4.4 RFU/min/pmole P450

SMILES: c1ccc2c(c1)-c1cccc3cccc-2c13 [fluoranthene]
- percentage depletion [2]: 22.8 ± 5.2%
- percentage depletion (recombinant CYP6P3): more than 40%
- metabolic activity (in words) (recombinant CYP6Z2; recombinant CYP6Z2): strong metabolic activity
- metabolic activity (in words) (recombinant CYP6Z3; recombinant CYP6Z3): strong metabolic activity

- Km at 30 min (Auyo microsomal P450; Anopheles coluzzii): 58.7 µM
- metabolic activity (in words) (recombinant CYP6Z2): strong metabolic activity
- metabolic activity (in words) (recombinant CYP6Z3): strong metabolic activity
- percentage depletion (CYP9K1): 8.5%
- percentage depletion (CYP6P4): 9.3%
- percentage depletion (CYP9J5): 7.7%
SMILES: c1ccc2c(c1)Cc1ccccc1-2 [fluorene]
- Turnover (Auyo microsomes [3]): 37.016 min⁻¹ and 37.02 min⁻¹
- Catalytic rate (Kcat) (Auyo microsomal P450; Auyo microsomes, 0.05 µM microsomal P450, 30 min, fluorene 0–600 µM): 0.06993 s⁻¹ and 0.07 ± 0.00733 s⁻¹
- catalytic efficiency (Auyo microsomal P450; Auyo microsomes, fluorene): 0.0715 ± 0.026 min⁻¹ µM⁻¹

- percentage depletion [4]: < 10%
SMILES: c1ccc2ccccc2c1 [naphthalene]
